Measured values from patent US10183009B2, “Therapeutic compounds and uses thereof” (GENENTECH, INC., priority 2014, dated 2019).

Target: BRD9 (Homo sapiens (Human), UniProt Q9H8M2)
Assay: BRD9 AlphaLisa Binding Assay
Procedure: After 20 minutes incubation at room temperature AlphaLisa Streptavidin Acceptor Beads (Perkin-A[…]) and AlphaLisa Nickel donor beads (Perkin AS 10 ID) were added to a final concentration of 15 ug/mL each.

BRD9, sequence (Q9H8M2 134-239 limits assumed): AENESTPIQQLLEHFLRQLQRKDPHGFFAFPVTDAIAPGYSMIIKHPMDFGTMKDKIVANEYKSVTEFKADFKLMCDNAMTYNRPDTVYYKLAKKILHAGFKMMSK

Structure (SMILES)	IC50 [nM]
CC(C)CCn1cc(-c2cccc(C(=O)N(C)C)c2)c2cc[nH]c2c1=O [Example 10, 3-(6-isopentyl-7-oxo-1H-pyrrolo[2,3-c]pyridin-4-yl)-N,N-dimethyl-benzamide]	320
C/C=C/Cn1cc(-c2cc(F)cc(C(=O)N(C)C)c2)c2cc[nH]c2c1=O [Example 19, 3-[6-[(E)-but-2-enyl]-7-oxo-1H-pyrrolo[2,3-c]pyridin-4-yl]-5-fluoro-N,N-dimethyl-benzamide]	94
C/C=C/Cn1cc(-c2ccc(C(=O)NC)cc2)c2cc[nH]c2c1=O [Example 24, 4-[6-[(E)-but-2-enyl]-7-oxo-1H-pyrrolo[2,3-c]pyridin-4-yl]-N-methyl-benzamide]	29
C/C=C/Cn1cc(-c2cccc(C(N)=O)c2)c2cc[nH]c2c1=O [Example 30, 3-[6-[(E)-but-2-enyl]-7-oxo-1H-pyrrolo[2,3-c]pyridin-4-yl]benzamide]	510
C/C=C/Cn1cc(-c2ccc(NS(C)(=O)=O)cc2)c2cc[nH]c2c1=O [Example 34, N-[4-[6-[(E)-but-2-enyl]-7-oxo-1H-pyrrolo[2,3-c]pyridin-4-yl]phenyl]methanesulfonamide]	22
C/C=C/Cn1cc(-c2cc(C(=O)N(C)C)ccc2F)c2cc[nH]c2c1=O [Example 41, 3-[6-[(E)-but-2-enyl]-7-oxo-1H-pyrrolo[2,3-c]pyridin-4-yl]-4-fluoro-N,N-dimethyl-benzamide]	130
C/C=C/Cn1cc(-c2cccc(C(=O)N(C)C)c2F)c2cc[nH]c2c1=O [Example 42, 3-[6-[(E)-but-2-enyl]-7-oxo-1H-pyrrolo[2,3-c]pyridin-4-yl]-fluoro-N,N-dimethyl-benzamide]	82
C/C=C/Cn1cc(-c2ccc(C(=O)N3CCOCC3)c(Cl)c2)c2cc[nH]c2c1=O [Example 51, 6-[(E)-but-2-enyl]-4-[3-chloro-4-(morpholine-4-carbonyl)phenyl]-1H-pyrrolo[2,3-c]pyridin-7-one]	13
C/C=C/Cn1cc(-c2ccc(C(=O)N3CCCC3)c(Cl)c2)c2cc[nH]c2c1=O [Example 52, 6-[(E)-but-2-enyl]-4-[3-chloro-4-(pyrrolidine-1-carbonyl)phenyl]-1H-pyrrolo[2,3-c]pyridin-7-one]	46
C/C=C/Cn1cc(-c2cc(C(=O)N(C)C)ccc2OC)c2cc[nH]c2c1=O [Example 64, 3-[6-[(E)-but-2-enyl]-7-oxo-1H-pyrrolo[2,3-c]pyridin-4-yl]-4-methoxy-N,N-dimethyl-benzamide]	56
C/C=C/Cn1cc(-c2cc(C(=O)NC)ccc2OC)c2cc[nH]c2c1=O [Example 67, 3-[6-[(E)-but-2-enyl]-7-oxo-1H-pyrrolo[2,3-c]pyridin-4-yl]-4-methoxy-N-methyl-benzamide]	35
C/C=C/Cn1cc(-c2cc(C(=O)N3CCCC3)ccc2OC)c2cc[nH]c2c1=O [Example 68, 6-[(E)-but-2-enyl]-4-[2-methoxy-5-(pyrrolidine-1-carbonyl)phenyl]-1H-pyrrolo[2,3-c]pyridin-7-one]	39
C/C=C/Cn1cc(-c2cc(C(=O)NCC(C)C)ccc2OC)c2cc[nH]c2c1=O [Example 70, 3-[6-[(E)-but-2-enyl]-7-oxo-1H-pyrrolo[2,3-c]pyridin-4-yl]-N-isobutyl-4-methoxy-benzamide]	28
C/C=C/Cn1cc(-c2cc(C(=O)NCCN(C)C)ccc2OC)c2cc[nH]c2c1=O [Example 72, 3-[6-[(E)-but-2-enyl]-7-oxo-1H-pyrrolo[2,3-c]pyridin-4-yl]-N-[2-(dimethylamino)ethyl]-4-methoxy-benzamide]	23
C/C=C/Cn1cc(-c2cc(C(=O)NCCO)ccc2OC)c2cc[nH]c2c1=O [Example 73, 3-[6-[(E)-but-2-enyl]-7-oxo-1H-pyrrolo[2,3-c]pyridin-4-yl]-N-(2-hydroxyethyl)-4-methoxy-benzamide]	35
C/C=C/Cn1cc(-c2cc(C(=O)NCCC)ccc2OC)c2cc[nH]c2c1=O [Example 74, 3-[6-[(E)-but-2-enyl]-7-oxo-1H-pyrrolo[2,3-c]pyridin-4-yl]-4-methoxy-N-propyl-benzamide]	27
CCCCn1cc(-c2cc(C(=O)N3CC4(CN(C(C)=O)C4)C3)ccc2OC)c2cc[nH]c2c1=O [Example 78, 4-[5-(2-acetyl-2,6-diazaspiro[3.3]heptane-6-carbonyl)-2-methoxy-phenyl]-6-butyl-1H-pyrrolo[2,3-c]pyridin-7-one]	65
CCCCn1cc(-c2ccc(C(C)(C)O)cc2OC)c2cc[nH]c2c1=O [Example 80, 6-butyl-4-[4-(1-hydroxy-1-methyl-ethyl)-2-methoxy-phenyl]-1H-pyrrolo[2,3-c]pyridin-7-one]	73
CCCCn1cc(-c2ccc(C(C)(C)O)cc2)c2cc[nH]c2c1=O [Example 82, 6-butyl-4-[4-(1-hydroxy-1-methyl-ethyl)phenyl]-1H-pyrrolo[2,3-c]pyridin-7-one]	43

Structure (SMILES)	IC50 [nM]
CCCCn1cc(-c2cc(C(=O)N(C)C)ccc2OC)c2cc(C)[nH]c2c1=O [Example 87, 3-(6-butyl-2-methyl-7-oxo-1H-pyrrolo[2,3-c]pyridin-4-yl)-4-methoxy-N,N-dimethyl-benzamide]	66
COc1ccc(C(=O)N(C)C)cc1-c1cn(CCC2CC2)c(=O)c2[nH]c(C)cc12 [Example 88, 3-[6-(2-cyclopropylethyl)-2-methyl-7-oxo-1H-pyrrolo[2,3-c]pyridin-4-yl]-4-methoxy-N,N-dimethyl-benzamide]	300
C/C=C/Cn1cc(-c2ccc(C(=O)N3CCCC3)cc2)c2cc(C)[nH]c2c1=O [Example 91, 6-[(E)-but-2-enyl]-2-methyl-4-[4-(pyrrolidine-1-carbonyl)phenyl]-1H-pyrrolo[2,3-c]pyridin-7-one]	13
C/C=C/Cn1cc(-c2ccc(C(=O)N3CCCC3)c(Cl)c2)c2cc(C)[nH]c2c1=O [Example 92, 6-[(E)-but-2-enyl]-4-[3-chloro-4-(pyrrolidine-1-carbonyl)phenyl]-2-methyl-1H-pyrrolo[2,3-c]pyridin-7-one]	10
C/C=C/Cn1cc(-c2ccc(C(=O)N3CCOCC3)c(F)c2F)c2cc(C)[nH]c2c1=O [Example 93, 6-[(E)-but-2-enyl]-4-[2,3-difluoro-4-(morpholine-4-carbonyl)phenyl]-2-methyl-1H-pyrrolo[2,3-c]pyridin-7-one]	34
C/C=C/Cn1cc(-c2cnc(C(=O)N3CCOCC3)c(Cl)c2)c2cc(C)[nH]c2c1=O [Example 98, 6-[(E)-but-2-enyl]-4-[5-chloro-6-(morpholine-4-carbonyl)-3-pyridyl]-2-methyl-1H-pyrrolo[2,3-c]pyridin-7-one]	32
C/C=C/Cn1cc(-c2ccc(C(=O)N3CCN(C)CC3)c(Cl)c2)c2cc(C)[nH]c2c1=O [Example 99, 6-[(E)-but-2-enyl]-4-[3-chloro-4-(4-methylpiperazine-1-carbonyl)phenyl]-2-methyl-1H-pyrrolo[2,3-c]pyridin-7-one]	9
C=CCn1cc(-c2ccc(C(=O)N3CCOCC3)c(Cl)c2)c2cc(C)[nH]c2c1=O [Example 101, 6-allyl-4-[3-chloro-4-(morpholine-4-carbonyl)phenyl]-2-methyl-1H-pyrrolo[2,3-c]pyridin-7-one]	12
C/C=C/Cn1cc(-c2ncc(C(=O)N3CCOCC3)cc2OC)c2cc(C)[nH]c2c1=O [Example 103, 6-[(E)-but-2-enyl]-4-[3-methoxy-5-(morpholine-4-carbonyl)-2-pyridyl]-2-methyl-1H-pyrrolo[2,3-c]pyridin-7-one]	46
C/C=C/Cn1cc(-c2cc(Cl)c(C(=O)N3CCOCC3)cn2)c2cc(C)[nH]c2c1=O [Example 104, 6-[(E)-but-2-enyl]-4-[4-chloro-5-(morpholine-4-carbonyl)-2-pyridyl]-2-methyl-1H-pyrrolo[2,3-c]pyridin-7-one]	22
C/C=C/Cn1cc(-c2cnc(C(=O)N3CCOCC3)nc2)c2cc(C)[nH]c2c1=O [Example 105, 6-[(E)-but-2-enyl]-2-methyl-4-[2-(morpholine-4-carbonyl)pyrimidin-5-yl]-1H-pyrrolo[2,3-c]pyridin-7-one]	83
C/C=C/Cn1cc(-c2ccc(C(C)(C)O)cc2OC)c2cc(C)[nH]c2c1=O [Example 107, 6-[(E)-but-2-enyl]-4-[4-(1-hydroxy-1-methyl-ethyl)-2-methoxy-phenyl]-2-methyl-1H-pyrrolo[2,3-c]pyridin-7-one]	100
C/C=C/Cn1cc(-c2cc(C(=O)NCc3cnccn3)ccc2OC)c2cc(C)[nH]c2c1=O [Example 109, 3-[6-[(E)-but-2-enyl]-2-methyl-7-oxo-1H-pyrrolo[2,3-c]pyridin-4-yl]-4-methoxy-N-(pyrazin-2-ylmethyl)benzamide]	6
C/C=C/Cn1cc(-c2ncc(C(=O)N3CCN(C)CC3)cc2OC)c2cc(C)[nH]c2c1=O [Example 110, 6-[(E)-but-2-enyl]-4-[3-methoxy-5-(4-methylpiperazine-1-carbonyl)-2-pyridyl]-2-methyl-1H-pyrrolo[2,3-c]pyridin-7-one]	39
C/C=C/Cn1cc(-c2ccc(C(=O)N3CCC(C(=O)O)CC3)c(Cl)c2)c2cc(C)[nH]c2c1=O [Example 112, 1-[4-[6-[(E)-but-2-enyl]-2-methyl-7-oxo-1H-pyrrolo[2,3-c]pyridin-4-yl]-2-chloro-benzoyl]piperidine-4-carboxylic acid]	8
C/C=C/Cn1cc(-c2ccc(C(=O)N3CCC(C(N)=O)CC3)c(Cl)c2)c2cc(C)[nH]c2c1=O [Example 113, (E)-1-(4-(6-(but-2-en-1-yl)-2-methyl-7-oxo-6,7-dihydro-1H-pyrrolo[2,3-c]pyridin-4-yl)-2-chlorobenzoyl)piperidine-4-carboxamide]	3
C/C=C/Cn1cc(-c2ccc(C(=O)N3CCOCC3)c(OC(C)C)c2)c2cc(C)[nH]c2c1=O [Example 114, 6-[(E)-but-2-enyl]-4-[3-isopropoxy-4-(morpholine-4-carbonyl)phenyl]-2-methyl-1H-pyrrolo[2,3-c]pyridin-7-one]	3
C/C=C/Cn1cc(-c2ccc(C(=O)N3CCOCC3)c(OCC3CC3)c2)c2cc(C)[nH]c2c1=O [Example 115, 6-[(E)-but-2-enyl]-4-[3-(cyclopropylmethoxy)-4-(morpholine-4-carbonyl)phenyl]-2-methyl-1H-pyrrolo[2,3-c]pyridin-7-one]	5
